± gives the standard deviation of the averaged measurements.

Compound in one assay: O=C(CCCCCCC(=O)Nc1ccccc1)NO [VORINOSTAT]
Put plainly: surviving fraction relative to DMSO-only wells; higher = less growth inhibition. Conditions: exposure time: 5 days. In a few lines: (§1)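 Surviving fraction was calculated by normalising CellTiter-Glo luminescence to the median of DMSO-only wells. Tumour cell lines in log phase were seeded in 384-well plates at 250–500 cells per well, and 24 hours later were exposed continuously for five days to inhibitors at 0.5, 1, 5, 10, 50, 100, 500 and 1000 nM.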

Compound in assay [1]: CCc1cc(Nc2nccc(-c3c(-c4ccc(OC)c(C(=O)Nc5c(F)cccc5F)c4)nc4ccccn34)n2)c(OC)cc1N1CCC(N2CCN(S(C)(=O)=O)CC2)CC1
The assay is described as above. The conditions noted are these: exposure time: 5 days. A digest of the protocol: as §1

As for HCC70 BREAST, the surviving fraction with VORINOSTAT (0.5 nM) is 0.965 ± 0.061; in the assay with VORINOSTAT (1 nM) it was 0.963 ± 0.042; in the assay with VORINOSTAT (5 nM) it was 1 ± 0.054; with VORINOSTAT (10 nM), 1.02 ± 0.11; with VORINOSTAT (50 nM), 1.06 ± 0.094; with VORINOSTAT (100 nM), 0.973 ± 0.073. The surviving fraction with VORINOSTAT (500 nM) was 0.766 ± 0.037; in the assay with VORINOSTAT (1000 nM), 0.496 ± 0.049; in assay [1] (0.5 nM) it was 1.08 ± 0.059; in assay [1] (1 nM), 0.975 ± 0.12; in assay [1] (5 nM), 1.07 ± 0.039; in assay [1] (10 nM), 1.09 ± 0.1. In addition, the surviving fraction in assay [1] (50 nM) came to 1.08 ± 0.051; in assay [1] (100 nM), 1.12 ± 0.096; in assay [1] (500 nM) it was 1.03 ± 0.13; in assay [1] (1000 nM), 0.994 ± 0.052.

Consider G292 BONE, for which the surviving fraction came out at 1.02 ± 0.027 with VORINOSTAT (0.5 nM); 0.995 ± 0.029 with VORINOSTAT (1 nM); 0.982 ± 0.046 in the assay with VORINOSTAT (5 nM); 1.04 ± 0.047 in the assay with VORINOSTAT (10 nM); 0.979 ± 0.04 with VORINOSTAT (50 nM); 0.947 ± 0.036 in the assay with VORINOSTAT (100 nM). For the same test system, the surviving fraction worked out at 0.691 ± 0.032 in the assay with VORINOSTAT (500 nM); 0.511 ± 0.03 with VORINOSTAT (1000 nM); 1.03 ± 0.072 in assay [1] (0.5 nM); 0.969 ± 0.032 in assay [1] (1 nM); 1 ± 0.061 in assay [1] (5 nM); 1 ± 0.023 in assay [1] (10 nM). The surviving fraction in assay [1] (50 nM) amounted to 1.03 ± 0.041; in assay [1] (100 nM), 0.994 ± 0.013; in assay [1] (500 nM), 1.018 ± 0.0097; in assay [1] (1000 nM), 0.975 ± 0.035.

HMT3552 BREAST: the surviving fraction came to 0.95 with VORINOSTAT (0.5 nM); 1.12 with VORINOSTAT (1 nM); 1.03 with VORINOSTAT (5 nM); 1.01 with VORINOSTAT (10 nM); 1.09 with VORINOSTAT (50 nM); 1.14 with VORINOSTAT (100 nM). Besides, the surviving fraction was 0.656 in the assay with VORINOSTAT (500 nM); 0.329 with VORINOSTAT (1000 nM); 1.14 in assay [1] (0.5 nM); 1.08 in assay [1] (1 nM); 1.08 in assay [1] (5 nM); 1.1 in assay [1] (10 nM). For the same test system, the surviving fraction in assay [1] (50 nM) was 1.17; in assay [1] (100 nM) it was 1.18; in assay [1] (500 nM) it was 1.21; in assay [1] (1000 nM), 1.3.

For the test system HCC38 BREAST, the surviving fraction was 1.25 ± 0.035 in the assay with VORINOSTAT (0.5 nM); 1.25 ± 0.028 in the assay with VORINOSTAT (1 nM); 1.27 ± 0.15 with VORINOSTAT (5 nM); 1.24 ± 0.097 in the assay with VORINOSTAT (10 nM); 1.42 ± 0.26 with VORINOSTAT (50 nM); 1.23 ± 0.21 with VORINOSTAT (100 nM). The surviving fraction with VORINOSTAT (500 nM) was determined as 1.06 ± 0.066; with VORINOSTAT (1000 nM), 0.633 ± 0.11; in assay [1] (0.5 nM), 1.09 ± 0.18; in assay [1] (1 nM), 1.19 ± 0.28; in assay [1] (5 nM), 1.1 ± 0.23; in assay [1] (10 nM) it was 1.02 ± 0.23. Besides, the surviving fraction worked out at 0.855 ± 0.2 in assay [1] (50 nM), 1.07 ± 0.17 in assay [1] (100 nM), 0.923 ± 0.12 in assay [1] (500 nM) and 0.881 ± 0.13 in assay [1] (1000 nM).

As to HMLE3 BREAST, the surviving fraction turned out to be 0.914 ± 0.067 in the assay with VORINOSTAT (0.5 nM); 0.95 ± 0.038 with VORINOSTAT (1 nM); 1.11 ± 0.03 in the assay with VORINOSTAT (5 nM); 1.01 ± 0.095 in the assay with VORINOSTAT (10 nM); 1.04 ± 0.042 with VORINOSTAT (50 nM); 1.09 ± 0.049 with VORINOSTAT (100 nM). Also, the surviving fraction with VORINOSTAT (500 nM) stood at 0.982 ± 0.066; with VORINOSTAT (1000 nM), 0.702 ± 0.073; in assay [1] (0.5 nM), 0.947 ± 0.037; in assay [1] (1 nM), 0.931 ± 0.073; in assay [1] (5 nM) it was 1 ± 0.013; in assay [1] (10 nM), 1.09 ± 0.038. In addition, the surviving fraction in assay [1] (50 nM) was determined as 0.967 ± 0.066; in assay [1] (100 nM), 0.979 ± 0.081; in assay [1] (500 nM) it was 0.908 ± 0.049; in assay [1] (1000 nM), 0.834 ± 0.062.

In the case of HS578T BREAST, the surviving fraction with VORINOSTAT (0.5 nM) was 0.951 ± 0.12; in the assay with VORINOSTAT (1 nM) it was 0.888 ± 0.12; with VORINOSTAT (5 nM), 0.922 ± 0.2; with VORINOSTAT (10 nM), 0.989 ± 0.11; in the assay with VORINOSTAT (50 nM) it was 0.945 ± 0.2; with VORINOSTAT (100 nM), 0.821 ± 0.068. For the same test system, the surviving fraction was determined as 0.569 ± 0.08 with VORINOSTAT (500 nM); 0.347 ± 0.034 in the assay with VORINOSTAT (1000 nM); 0.891 ± 0.1 in assay [1] (0.5 nM); 0.952 ± 0.025 in assay [1] (1 nM); 0.965 ± 0.12 in assay [1] (5 nM); 0.902 ± 0.042 in assay [1] (10 nM). The surviving fraction in assay [1] (50 nM) was determined as 0.803 ± 0.064; in assay [1] (100 nM) it was 0.88 ± 0.14; in assay [1] (500 nM), 0.931 ± 0.022; in assay [1] (1000 nM), 0.776 ± 0.078.

Values taken from the supplement of paper PMC6045584.
